Test systems include A498; ACHN; CAKI-1; COLO 205; HCC 2998; HCT-116; Hs-578T; K562; MDA-MB-231; NCI-H226; NCI-H23; NCI-H522; NCI/ADR-RES; RPMI-8226; SF-539; SK-MEL-5; SN12C; SW-620; TK-10; UO-31.
Holding throughout (assay): growth of human tumour cells (NCI), 48 h

Each structure is given as a SMILES string.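 Five concentrations, 48 hours, 96-well plates. At the GI50, growth is halved.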 The source made the active and inactive calls. Rule as the data show it: active = GI50 up to about 1.1 µM and inactive = higher.

`Clc1ccccc1C(Nc1ncccn1)Nc1ncccn1`: the GI50 in the test with A498, in the test with ACHN, with CAKI-1, in the test with COLO 205, in the test on HCC 2998 and with HCT-116 was > 100 µM (inactive) in each case. Moreover, the GI50 in the test on Hs-578T, with K562, with MDA-MB-231, in the test with NCI-H226, with NCI-H23 and in the test with NCI-H522 was > 100 µM (inactive) in each case. Besides, the GI50 with NCI/ADR-RES, in the test with RPMI-8226, with SF-539, in the test with SK-MEL-5, in the test with SN12C and with SW-620 was > 100 µM (inactive) each time. Also, the GI50 in the test on TK-10 and in the test with UO-31 was > 100 µM (inactive) throughout.
For the compound `O=S(=O)(O)C(CO)c1ccccc1.O=S(=O)(O)Cc1ccccc1` (stereo not given), the GI50 in the test with A498, with ACHN, with CAKI-1, with COLO 205, in the test with HCC 2998 and in the test on HCT-116 was > 100 µM (inactive) throughout. The GI50 is 96.4 µM (inactive) in the test on Hs-578T; > 100 µM (inactive) with K562; > 100 µM (inactive) in the test on MDA-MB-231; > 100 µM (inactive) with NCI-H226; > 100 µM (inactive) in the test with NCI-H23; > 100 µM (inactive) in the test with NCI-H522. The GI50 in the test with NCI/ADR-RES, in the test with RPMI-8226, with SF-539, with SK-MEL-5, in the test with SN12C and in the test on SW-620 was > 100 µM (inactive) each time. Besides, the GI50 in the test with TK-10 and in the test on UO-31 was > 100 µM (inactive) each time.
Regarding `COC1(OC)C[C@H](C)[C@@]23O[C@]24C2=CC(=O)C=CC2=N[C@H]3C#C/C=C\C#C[C@]14O`, the GI50 in the test on A498 was 0.91 µM (active); with ACHN, 0.259 µM (active); in the test on CAKI-1, 0.284 µM (active); in the test with COLO 205, 0.541 µM (active); with HCC 2998, 0.67 µM (active); in the test on HCT-116 it was 0.364 µM (active). The GI50 in the test with Hs-578T is 0.904 µM (active); with K562 it was 0.359 µM (active); in the test on MDA-MB-231, 0.621 µM (active); with NCI-H226 it was 0.7 µM (active); in the test with NCI-H23 it was 0.411 µM (active); in the test with NCI-H522, 0.0469 µM (active). For the same compound, the GI50 in the test with NCI/ADR-RES was 1.59 µM (inactive); in the test with RPMI-8226, 0.123 µM (active); in the test on SF-539 it was 0.634 µM (active); in the test with SK-MEL-5, 0.323 µM (active); in the test with SN12C it was 0.973 µM (active); with SW-620 it was 0.415 µM (active). Moreover, the GI50 in the test with TK-10 is 0.893 µM (active); in the test with UO-31 it was 0.355 µM (active).

The record behind these values is ChEMBL document CHEMBL1201862, “PubChem BioAssay data set” (2004).
